According to ChEMBL document CHEMBL1201862, “PubChem BioAssay data set” (2004):
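Interpolation was linear, between the two tested concentrations surrounding the appropriate level; five concentrations were tested over 48 hours in 96-well plates. GI50 = concentration required for 50% inhibition of growth.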 Calls of active or inactive are those of the source. Rule as the data show it: active = GI50 up to about 1.1 µM and inactive = higher.

Tests used:
Assay in all cases: NCI-60 cell line screen, 48 h
SW-620 = tested on: SW-620
EKVX = tested on: EKVX
OVCAR-3 = tested on: OVCAR-3
OVCAR-5 = tested on: OVCAR-5
SK-OV-3 = tested on: SK-OV-3
TK-10 = tested on: TK-10
M14 = tested on: M14
DU-145 = tested on: DU-145
SN12C = tested on: SN12C
SNB-75 = tested on: SNB-75
MDA-N = tested on: MDA-N
IGROV-1 = tested on: IGROV-1
NCI-H522 = tested on: NCI-H522
MCF7 = tested on: MCF7
KM12 = tested on: KM12
U-251 = tested on: U-251
RXF 393 = tested on: RXF 393
T47D = tested on: T47D
SK-MEL-28 = tested on: SK-MEL-28
HCC 2998 = tested on: HCC 2998

Structure (SMILES) | GI50 (SW-620) | GI50 (EKVX) | GI50 (OVCAR-3) | GI50 (OVCAR-5) | GI50 (SK-OV-3) | GI50 (TK-10) | GI50 (M14) | GI50 (DU-145) | GI50 (SN12C) | GI50 (SNB-75) | GI50 (MDA-N) | GI50 (IGROV-1) | GI50 (NCI-H522) | GI50 (MCF7) | GI50 (KM12) | GI50 (U-251) | GI50 (RXF 393) | GI50 (T47D) | GI50 (SK-MEL-28) | GI50 (HCC 2998)
CCCCCC(O)C1C(=O)OC(C)C(O)/C=C/C=C/C=C/C=C\C=C(\C)C(O)CC(O)CC(O)CC(O)CC(O)CC(O)CC1O (stereo not given) | > 50 µM (inactive) | > 50 µM (inactive) | > 50 µM (inactive) | > 50 µM (inactive) | > 50 µM (inactive) | > 50 µM (inactive) | > 50 µM (inactive) | > 50 µM (inactive) | > 50 µM (inactive) | > 50 µM (inactive) | > 50 µM (inactive) | > 50 µM (inactive) | > 50 µM (inactive) | > 50 µM (inactive) | > 50 µM (inactive) | > 50 µM (inactive) | > 50 µM (inactive) | > 50 µM (inactive) | > 50 µM (inactive) | > 50 µM (inactive)
O=C(OCc1c(-c2ccccc2)nn(-c2ccccc2)c1COC(=O)Oc1ccccc1)Oc1ccccc1 | > 100 µM (inactive) | > 100 µM (inactive) | > 100 µM (inactive) | > 100 µM (inactive) | > 100 µM (inactive) | > 100 µM (inactive) | > 100 µM (inactive) | > 100 µM (inactive) | > 100 µM (inactive) | > 100 µM (inactive) | > 100 µM (inactive) | > 100 µM (inactive) | > 100 µM (inactive) | > 100 µM (inactive) | > 100 µM (inactive) | > 100 µM (inactive) | > 100 µM (inactive) | > 100 µM (inactive) | > 100 µM (inactive) | > 100 µM (inactive)
COC1/C=C/C(C)C(OC)CC(O)/C=C/C(C)C(C(C)C(OC)C(C)CCC(=O)C(C)C(C/C=C/N(C)C=O)OC)OC(=O)/C=C/C=C(\C)CC(OC)C(OC)C2=CC(=O)O[C@@H](C(C)C(OC)C1)[C@H]2O (stereo not given in full) | 0.0361 µM (active) | 0.08 µM (active) | 0.00596 µM (active) | 0.0479 µM (active) | 0.0436 µM (active) | 0.0548 µM (active) | 0.0384 µM (active) | 0.0959 µM (active) | 0.0498 µM (active) | 0.034 µM (active) | 0.0507 µM (active) | 0.0341 µM (active) | 0.0295 µM (active) | 0.0251 µM (active) | 0.0399 µM (active) | 0.0303 µM (active) | 0.039 µM (active) | 0.0571 µM (active) | 0.0446 µM (active) | 0.0182 µM (active)
CN(C)CCCNc1ccc2ncn3c4ccc(O)cc4c(=O)c1c23 | 0.647 µM (active) | 4.71 µM (inactive) | 3.58 µM (inactive) | 3.03 µM (inactive) | 0.321 µM (active) | 1.76 µM (inactive) | 1.65 µM (inactive) | 0.638 µM (active) | 0.5 µM (active) | 0.601 µM (active) | 4.48 µM (inactive) | 0.577 µM (active) | 0.252 µM (active) | 0.0964 µM (active) | 3.14 µM (inactive) | 0.203 µM (active) | 0.439 µM (active) | 12 µM (inactive) | 4.71 µM (inactive) | 4.43 µM (inactive)
